Where two headings read alike, the source gives them in different places.
Tests used:
[1] = system: Phosphorylation of ERK1/2 in MIA PaCa-2 cells; test: Phospho-ERK1/2 MSD Assay; format: cell-based; settings: Homo sapiens, MiaPaCa-2 cells
[2] = system: Phosphorylation of ERK1/2 in A549 cells; test: Phospho-ERK1/2 MSD Assay (A549); format: cell-based; settings: Homo sapiens
[3] = biological target: GDP-bound KRAS protein (aa 1-169), containing both G12C and C118A amino acid substitutions (Homo sapiens (Human), UniProt P01116, C118A/G12C); test: Coupled Nucleotide Exchange Assay; format: biochemical
GDP-bound KRAS protein (aa 1-169), containing both G12C and C118A amino acid substitutions, sequence (P01116 other isoform, or with tags, fused parts or gaps G12C/C118A): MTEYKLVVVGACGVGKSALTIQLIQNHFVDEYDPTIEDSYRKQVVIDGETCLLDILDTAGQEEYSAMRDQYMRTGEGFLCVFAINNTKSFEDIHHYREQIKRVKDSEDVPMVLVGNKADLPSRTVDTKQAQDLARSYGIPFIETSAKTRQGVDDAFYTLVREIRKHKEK
Experimental: For compounds in Table 9, the following assay conditions were employed:
Coupled Nucleotide Exchange Assay:
The assay plates were then read on a PerkinElmer EnVision Multilabel Reader, using AlphaScreen® technology, and data were analyzed using a 4-parameter logistic model to calculate IC50 values.

[4] = MIA PaCa-2, 4 h, read-out: pERK IC50 (4 h, MiaPaCa-2), 4 h compound treatment
[5] = A549, 4 h, read-out: pERK IC50 (4 h, A549), 4 h compound treatment
[6] = read-out: Coupled Exchange IC50 (2 h), 2 h compound pre-incubation
[7] = read-out: Coupled Exchange IC50 (20 h), 20 h compound pre-incubation
[8] = MIA PaCa-2, read-out: pERK IC50 (4 h), 4 h compound treatment
[9] = read-out: pERK IC50 (4 h), 4 h compound treatment
[10] = read-out: Coupled Exchange IC50 (5 min), 5 min compound pre-incubation

SMILES	IC50 [1, 4] [µM]	IC50 [2, 5] [µM]	IC50 [3, 6] [µM]	IC50 [3, 7] [µM]	IC50 [1, 8] [µM]	IC50 [2, 9] [µM]	IC50 [3, 10] [µM]
C=CC(=O)N1CC(N(C)C(=O)Cn2c(C)c(C(=O)N3CCN(c4ccc(Br)cn4)CC3)c3cc(Br)ccc32)C1 [Example 21]	1.95	27.3	0.49	0.1	–	–	–
C=CC(=O)N1CC(NC(=O)Cn2c(C)c(C(=O)N3[C@H](C)CN(c4ccc(C#N)cn4)C[C@H]3C)c3cc(Br)ccc32)C1 [Example 22]	2.02	> 100	0.19	–	–	–	–
C=CC(=O)N1CC(NC(=O)Cn2c(C3CC3)c(C(=O)N3CCOC(C)(C)C3)c3cc(Cl)cc(C)c32)C1 [Example 23]	2.35	> 100	0.95	–	–	–	–
C=CC(=O)N1CC(NC(=O)Cn2c(C)c(C(=O)N3CCc4c(C)cccc4C3)c3cc(Br)ccc32)C1 [Example 25]	2.47	> 100	0.54	0.09	–	–	–
C=CC(=O)N1CC(N(C)C(=O)Cn2c(C)c(C(=O)N3CCN(c4ccc(C#N)cn4)CC3)c3cc(Br)ccc32)C1 [Example 27]	2.5	> 100	0.77	0.24	–	–	–
C=CC(=O)N1CC(NC(=O)Cn2c(C)c(C(=O)N3CCc4c(ccnc4OC)C3)c3cc(Cl)ccc32)C1 [Example 28]	2.63	> 100	0.59	0.18	–	–	–
C=CC(=O)N1CC(NC(=O)Cn2c(C)c(-c3cncnc3C3CC3)c3cc(Cl)ccc32)C1 [Example 30]	–	–	2.32	–	2.68	> 100	–
C=CC(=O)N1CC(NC(=O)Cn2c(C)c(-c3ccccc3CN(C)C)c3cc(Cl)ccc32)C1 [Example 32]	–	–	6.05	–	2.73	> 100	202
C=CC(=O)N1CC(N(C)C(=O)Cn2c(C)c(C(=O)N3CCc4c(cccc4OC)C3)c3cc(Cl)ccc32)C1 [Example 33]	2.8	> 100	0.21	0.13	–	–	–
C=CC(=O)N1CC(NC(=O)Cn2c(C)c(C(=O)N3CCc4ccccc4C3(C)C)c3cc(Br)cc(C)c32)C1 [Example 35]	3.06	55.7	0.29	–	–	–	–
C=CC(=O)N1CC(NC(=O)Cn2c(C)c(-c3ccccc3C3CC3)c3cc(Cl)ccc32)C1 [Example 36]	–	–	0.71	0.2	3.31	> 33.3	–
C=CC(=O)N1CC(N(C)C(=O)Cn2c(C)c(C(=O)N3CCN(c4ccc([N+](=O)[O-])cn4)CC3)c3cc(Br)ccc32)C1 [Example 38]	3.33	> 100	0.76	0.22	–	–	–
C=CC(=O)N1CC(NC(=O)Cn2c(C)c(C(=O)N3Cc4ccccc4CC3C)c3cc(Br)cc(C)c32)C1 (centres unmarked) [Example 39]	3.35	60.3	0.33	–	–	–	–
C=CC(=O)N1CC(NC(=O)Cn2c(C)c(C(=O)N3CCc4c(cccc4OC)C3)c3cc(Cl)ccc32)C1 [Example 41]	3.55	> 100	0.37	0.12	–	–	–
C=CC(=O)N1CC(N(C)C(=O)Cn2cc(I)c3cc(Br)ccc32)C1 [Example 43]	–	–	4.65	0.44	3.82	> 33.3	36.6
C=CC(=O)N1CC(NC(=O)Cn2c(C)c(-c3ccccc3N3CCOCC3)c3cc(Cl)ccc32)C1 [Example 49]	–	–	0.72	–	4.67	7.68	–

— patent US11053226B2, “KRAS G12C inhibitors and methods of using the same” (Amgen Inc., priority 2018, dated 2021)
